Results taken from PMC1977344 (British Journal of Cancer, 1992).
pIC50: −log10 of the molar value. Read-outs that look alike come from different tables or passages of the source.

What was measured:
[1] = cited from earlier work
delta receptor [2] = biological target: T1, delta receptor (Rattus norvegicus, UniProt P33533); test: Radioligand binding, delta assay (3H-DSLET displacement with DAGO block, rat brain P2 homogenate); parameters: species or system Wistar rats
T1 construct: from tissue

[3] = ref Shimomum et al. (1971); cited from earlier work
kappa receptor = system: kappa receptor; parameters: method as in Pasternak et al., 1987; conditions: not yet accurately determined; ref Pasternak et al., 1987; cited from earlier work
mu 2 receptor [4] = biological target: T2, mu 2 receptor (Rattus norvegicus, UniProt P33535); test: biochemical; conditions: IC50 mu 2 receptor
mu 2 receptor [5] = biological target: T2, mu 2 receptor; conditions: for fold lower affinity of M6G than morphine at the mu 2 receptor (IC50 ratio): from mean IC50s; for specific binding of the 3H-ligand remaining, mu 2 assay: test substance at 5 µM (5 pM in methods)
[6] = biological target: T3, total mu (mu 1 and mu 2) receptor (Rattus norvegicus, UniProt P33535); test: Radioligand binding, total mu assay (3H-DAGO displacement, rat brain P2 homogenate); parameters: species or system Wistar rats; specific binding of the 3H-ligand remaining, total mu assay: dose or concentration left out as unconfirmed
T3 construct: from tissue

[7] = normal volunteers; ref Thompson et al., 1990; cited from earlier work
delta receptor [8] = system: delta receptor; parameters: method as in Oguri et al. (1987); conditions: 3H-leucine enkephalin; ref Oguri et al. (1987); cited from earlier work
mu 1 receptor = mu 1 receptor (Rattus norvegicus, UniProt P33535); test: Radioligand binding, mu 1 assay (3H-DSLET displacement with DPDPE block, rat brain P2 homogenate); parameters: species or system Wistar rats
[9] = open study in man; ref Osborne et al., 1989; cited from earlier work
[10] = test substance at 5 µM (5 pM in methods)

T1 sequence (P33533 whole entry): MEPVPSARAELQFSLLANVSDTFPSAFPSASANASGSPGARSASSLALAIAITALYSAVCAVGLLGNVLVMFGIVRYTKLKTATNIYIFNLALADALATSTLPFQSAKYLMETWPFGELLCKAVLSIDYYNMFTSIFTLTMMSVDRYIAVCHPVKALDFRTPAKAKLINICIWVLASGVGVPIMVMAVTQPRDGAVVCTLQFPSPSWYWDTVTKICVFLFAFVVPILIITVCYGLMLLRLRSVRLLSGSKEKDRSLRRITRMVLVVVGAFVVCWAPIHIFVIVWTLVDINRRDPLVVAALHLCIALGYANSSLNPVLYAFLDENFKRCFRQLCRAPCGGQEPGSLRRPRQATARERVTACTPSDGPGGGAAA
T2 sequence (P33535 whole entry): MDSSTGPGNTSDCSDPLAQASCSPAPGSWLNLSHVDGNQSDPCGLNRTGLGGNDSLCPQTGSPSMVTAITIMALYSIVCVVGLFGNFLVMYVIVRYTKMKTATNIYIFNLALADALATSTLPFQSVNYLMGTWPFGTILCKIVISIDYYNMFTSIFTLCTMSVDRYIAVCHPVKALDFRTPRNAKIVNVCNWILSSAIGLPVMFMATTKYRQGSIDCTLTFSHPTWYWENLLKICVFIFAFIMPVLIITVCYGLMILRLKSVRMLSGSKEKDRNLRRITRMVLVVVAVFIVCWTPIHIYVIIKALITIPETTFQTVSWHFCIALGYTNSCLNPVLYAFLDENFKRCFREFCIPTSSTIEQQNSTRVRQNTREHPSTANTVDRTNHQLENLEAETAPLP
T3 sequence (P33535 whole entry): as above
Chain of mu 1 receptor (P33535 whole entry): as above

## CN1CC[C@]23c4c5ccc(O[C@@H]6O[C@H](C(=O)O)[C@@H](O)[C@H](O)[C@H]6O)c4O[C@H]2[C@@H](O)C=C[C@H]3[C@H]1C5 [M3G, morphine 3-glucuronide]
[1]; ref Osborne et al., 1986, Hanks et al., 1987, Hoskin & Hanks, 1990
  analgesic activity: devoid of analgesic activity

## CN1CC[C@]23c4c5ccc(O)c4O[C@H]2[C@@H](O[C@@H]2O[C@H](C(=O)O)[C@@H](O)[C@H](O)[C@H]2O)C=C[C@H]3[C@H]1C5 [M6G, morphine 6-glucuronide]
Delta receptor [2]
  pIC50: 7.12
[3]
  systemic LD50 relative to that of morphine: 88%
Kappa receptor
  affinity for the kappa receptor: thought to be low
Mu 2 receptor [4]; brain minus hypothalami, P2 fraction, 3H-DAGO 1.5 nM, DSLET 5 nM block, mean ± SEM
  pIC50: 7.09
Mu 2 receptor [4]; whole brain preparations, P2 fraction of whole rat brain homogenate, single assay
  pIC50: 7.18
[1]; systemic, ref Shimomura et al., 1971, Abbott & Palmour, 1988
  systemic analgesic potency advantage over morphine: 3 fold
Mu 2 receptor [5]
  fold lower affinity of M6G than morphine at the mu 2 receptor (IC50 ratio): 4.8 fold
Mu 2 receptor [5]; listed as Morphine 6-glucuronide
  fold lower affinity of M6G than morphine at the mu 2 receptor (IC50 ratio): 4 fold
[6]
  pIC50: 7.10
[7]
  nausea and sedation versus morphine: less nausea and no sedation
  respiratory depression versus equipotent dose of morphine: significantly less respiratory depression
Delta receptor [8]
  affinity for the delta receptor relative to morphine: slightly higher affinity
Mu 1 receptor; read-out: IC50 mu 1 receptor, whole brain preparations, P2 fraction of whole rat brain homogenate, single assay
  pIC50: 6.77
[9]
  nausea or sedation at doses sufficient to give significant pain relief: no nausea or sedation was seen

## CN1CC[C@@]23CCCC[C@@H]2[C@@H]1Cc1ccc(O)cc13 [dextrorphan]
Delta receptor [2]; [10]
  specific binding of the 3H-ligand remaining, delta assay: no inhibition was observed
Mu 2 receptor [5]
  specific binding of the 3H-ligand remaining, mu 2 assay: 72%
[6]
  specific binding of the 3H-ligand remaining, total mu assay: 70%
Mu 1 receptor; [10]
  specific binding of the 3H-ligand remaining, mu 1 assay: no inhibition was observed

## CN1CC[C@]23CCCC[C@H]2[C@H]1Cc1ccc(O)cc13 [levorphanol]
Delta receptor [2]
  specific binding of the 3H-ligand remaining, delta assay: 0%
Mu 2 receptor [5]
  specific binding of the 3H-ligand remaining, mu 2 assay: 28%
[6]
  specific binding of the 3H-ligand remaining, total mu assay: 0%
Mu 1 receptor
  specific binding of the 3H-ligand remaining, mu 1 assay: 1%
